One series relates to Candida albicans. The series is described as follows: Antimicrobial activity against Candida albicans ATCC 90029 after 24 hrs by microbroth dilution method. It is filed as functional. The conditions noted are these: ATCC 90029, 24 h. Background: Dilution methods test growth across graded concentrations, often in twofold steps.
The test system of another series is Bacillus spizizenii. Nature of the series: Antimicrobial activity against Bacillus subtilis ATCC 6633 after 24 hrs by microbroth dilution method. The series is classed as functional. The conditions noted are these: ATCC 6633, 24 h.
For a further series, the target named is Albumin (Homo sapiens, UniProt P02768). Nature of the series: Binding affinity to human serum albumin at 0.2 to 1.8 10^-5 mol/L at pH 7.4 at 294 K by UV-vis spectroscopic analysis. It is filed as ADME. Conditions: isolated protein; call rule not given here.
Chain of Albumin (P02768 whole entry): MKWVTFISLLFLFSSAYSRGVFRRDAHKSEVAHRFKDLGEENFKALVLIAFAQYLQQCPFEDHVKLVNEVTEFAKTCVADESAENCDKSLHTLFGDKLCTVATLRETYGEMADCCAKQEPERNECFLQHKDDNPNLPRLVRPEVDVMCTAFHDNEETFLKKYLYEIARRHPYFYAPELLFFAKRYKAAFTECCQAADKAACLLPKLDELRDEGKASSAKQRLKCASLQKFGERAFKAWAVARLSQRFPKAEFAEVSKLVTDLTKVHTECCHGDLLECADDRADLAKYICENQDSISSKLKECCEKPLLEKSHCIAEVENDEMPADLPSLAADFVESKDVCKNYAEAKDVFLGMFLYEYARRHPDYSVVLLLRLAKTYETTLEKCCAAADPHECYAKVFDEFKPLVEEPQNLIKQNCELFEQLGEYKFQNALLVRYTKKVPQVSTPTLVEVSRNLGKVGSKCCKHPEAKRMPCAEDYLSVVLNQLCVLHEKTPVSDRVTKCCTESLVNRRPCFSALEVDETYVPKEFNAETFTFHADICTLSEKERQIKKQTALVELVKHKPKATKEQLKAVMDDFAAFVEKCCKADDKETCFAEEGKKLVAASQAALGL
In a further series the test system is Cyberlindnera jadinii. Nature of the series: Antimicrobial activity against Candida utilis ATCC 9950 after 24 hrs by microbroth dilution method. The series is classed as functional. The conditions noted are these: Williopsis jadinii, ATCC 9950, 24 h.
The test system of series [1] is Proteus vulgaris. The series is described as follows: Ratio of norfloxacin MIC to compound MIC for Proteus vulgaris ATCC 8427. The series is classed as functional.
Series [2] deals with Proteus vulgaris. The series is described as follows: Ratio of chloromycin MIC to compound MIC for Proteus vulgaris ATCC 8427. It is filed as functional.
The next series relates to Micrococcus luteus. Nature of the series: Antimicrobial activity against Micrococcus luteus ATCC 4698 after 24 hrs by microbroth dilution method. It is filed as functional. Conditions: NCTC 2665, 24 h.
The test system of a further series is Candida. Nature of the series: Antimicrobial activity against Candida mycoderma after 24 hrs by microbroth dilution method. It is filed as functional.
For another series, the system named is Saccharomyces cerevisiae. The series is described as follows: Antimicrobial activity against Saccharomyces cerevisiae ATCC 9763 after 24 hrs by microbroth dilution method. The series is classed as functional. Conditions: ATCC 9763, 24 h.
For series [3], the system named is Proteus vulgaris. The series is described as follows: Ratio of berberine MIC to compound MIC for Proteus vulgaris ATCC 8427. The series is classed as functional.
Series [4] concerns Proteus vulgaris. Nature of the series: Antimicrobial activity against Proteus vulgaris ATCC 8427 after 24 hrs by microbroth dilution method. It is filed as functional. The conditions noted are these: ATCC 8427, 24 h.
Series [5] concerns Staphylococcus aureus. The series is described as follows: Antimicrobial activity against Staphylococcus aureus ATCC 25923 after 24 hrs by microbroth dilution method. It is filed as functional. Conditions: ATCC 25923, 24 h.
Series [6] concerns Shigella dysenteriae. Nature of the series: Antimicrobial activity against Shigella dysenteriae ATCC 51252 after 24 hrs by microbroth dilution method. Conditions: ATCC 51252, 24 h. It is filed as functional.
The subject of the next series is Pseudomonas aeruginosa. The series is described as follows: Antimicrobial activity against Pseudomonas aeruginosa ATCC 27853 after 24 hrs by microbroth dilution method. It is filed as functional. The conditions noted are these: ATCC 27853, 24 h.
The test system of a further series is Escherichia coli. The series is described as follows: Antimicrobial activity against Escherichia coli […] after 24 hrs by microbroth dilution method. It is filed as functional.
For series [7], the system named is Staphylococcus aureus. Nature of the series: Antimicrobial activity against methicillin-resistant Staphylococcus aureus N315 after 24 hrs by microbroth dilution method. The conditions noted are these: N315, 24 h. The series is classed as functional.
The test system of series [8] is Shigella dysenteriae. Nature of the series: Ratio of berberine MIC to compound MIC for Shigella dysenteriae ATCC 51252. The series is classed as functional.
The test system of series [9] is Shigella dysenteriae. The series is described as follows: Ratio of chloromycin MIC to compound MIC for Shigella dysenteriae ATCC 51252. It is filed as functional.

Converted amounts (≈) assume the structure as drawn. A value given as a limit tells only on which side of the number the result lay.

The term MIC80 denotes the lowest concentration that inhibits either 80% of growth or 80% of the strains tested, depending on the study. Read a high MIC80 as weaker potency. As usually defined, the MIC is the lowest concentration that inhibits growth of the organism. Higher therefore signals a less susceptible organism. For the compound `COc1ccc2cc3[n+](cc2c1OCCN(CCn1cncn1)Cc1ccc(F)cc1F)CCc1cc2c(cc1-3)OCO2.[Cl-]`, the MIC80 in the series on Candida albicans came out at 4 µg/mL; with Cyberlindnera jadinii, 8 µg/mL; against Candida, 2 µg/mL; against Saccharomyces cerevisiae it was 32 µg/mL. Also, the MIC in the series with Bacillus spizizenii and against Micrococcus luteus was 8 µg/mL in each case. For the same compound, the result at Albumin was Active. Further, the Ratio in the series on Proteus vulgaris [1] is recorded as 4; in the series on Proteus vulgaris [2], 16; in the series on Proteus vulgaris [3] it was 64.
Regarding `Cc1cc2ncn(CCN(CCBr)Cc3ccc(F)cc3F)c2cc1C`, the MIC in the series on Proteus vulgaris [4] was found to be 128 µg/mL (≈ 303 µM); against Bacillus spizizenii, 32 µg/mL (≈ 75.8 µM); in the series with Staphylococcus aureus [5], 64 µg/mL (≈ 152 µM); in the series with Shigella dysenteriae [6] it was 16 µg/mL (≈ 37.9 µM); with Micrococcus luteus, 64 µg/mL (≈ 152 µM); in the series with Pseudomonas aeruginosa, 64 µg/mL (≈ 152 µM). In addition, the MIC with Escherichia coli and against Staphylococcus aureus [7] was 128 µg/mL (≈ 303 µM) each time. Also, the MIC80 was found to be 128 µg/mL (≈ 303 µM) with Candida albicans, 128 µg/mL (≈ 303 µM) against Cyberlindnera jadinii, 64 µg/mL (≈ 152 µM) against Candida and 256 µg/mL (≈ 606 µM) in the series on Saccharomyces cerevisiae.
Take `Fc1ccc(CN(CCBr)CCn2nnc3ccccc32)c(F)c1`: the MIC with Proteus vulgaris [4] was 256 µg/mL (≈ 648 µM); in the series with Bacillus spizizenii, 256 µg/mL (≈ 648 µM); against Staphylococcus aureus [5], 256 µg/mL (≈ 648 µM); in the series with Shigella dysenteriae [6] it was 64 µg/mL (≈ 162 µM); in the series on Micrococcus luteus it was 256 µg/mL (≈ 648 µM); in the series on Pseudomonas aeruginosa, 128 µg/mL (≈ 324 µM). The MIC in the series with Escherichia coli and against Staphylococcus aureus [7] was 128 µg/mL (≈ 324 µM) in each case. The MIC80 is more than 512 µg/mL in the series with Candida albicans, 256 µg/mL (≈ 648 µM) in the series with Cyberlindnera jadinii, more than 512 µg/mL with Candida and 256 µg/mL (≈ 648 µM) in the series with Saccharomyces cerevisiae.
On to `COc1ccc2cc3[n+](cc2c1OCCN(CCn1cnc2ccccc21)Cc1ccc(F)cc1F)CCc1cc2c(cc1-3)OCO2.[Cl-]`, for which the MIC in the series with Proteus vulgaris [4] was 32 µg/mL; in the series with Bacillus spizizenii it was 32 µg/mL; in the series with Staphylococcus aureus [5], 16 µg/mL; in the series on Shigella dysenteriae [6], 8 µg/mL; against Micrococcus luteus, 16 µg/mL; in the series with Pseudomonas aeruginosa, 16 µg/mL. The MIC in the series on Escherichia coli and in the series on Staphylococcus aureus [7] was 32 µg/mL throughout. The MIC80 against Candida albicans was 32 µg/mL; in the series on Cyberlindnera jadinii, 16 µg/mL; with Candida, 32 µg/mL; against Saccharomyces cerevisiae it was 32 µg/mL.
Regarding `COc1ccc2cc3[n+](cc2c1OCCN(CCn1cnc2cc(C)c(C)cc21)Cc1ccc(F)cc1F)CCc1cc2c(cc1-3)OCO2.[Cl-]`, the minimal inhibitory concentration (MIC) in the series on Proteus vulgaris [4] turned out to be 8 µg/mL; with Bacillus spizizenii, 16 µg/mL; against Staphylococcus aureus [5] it was 32 µg/mL; with Shigella dysenteriae [6] it was 4 µg/mL; against Micrococcus luteus, 16 µg/mL; against Pseudomonas aeruginosa, 8 µg/mL. Besides, the MIC with Escherichia coli and against Staphylococcus aureus [7] was 32 µg/mL throughout. In addition, the MIC80 in the series with Candida albicans was 32 µg/mL; with Cyberlindnera jadinii, 16 µg/mL; against Candida it was 16 µg/mL; against Saccharomyces cerevisiae it was 16 µg/mL. Moreover, the Ratio in the series with Shigella dysenteriae [8] is reported as 64; with Shigella dysenteriae [9] it was 8.
As to `COc1ccc2cc3[n+](cc2c1OCCN(CCn1nnc2ccccc21)Cc1ccc(F)cc1F)CCc1cc2c(cc1-3)OCO2.[Cl-]`, the MIC came to 128 µg/mL in the series on Proteus vulgaris [4]; 128 µg/mL against Bacillus spizizenii; 64 µg/mL against Staphylococcus aureus [5]; 32 µg/mL against Shigella dysenteriae [6]; 128 µg/mL in the series with Micrococcus luteus; 64 µg/mL against Pseudomonas aeruginosa. In addition, the MIC stood at 128 µg/mL with Escherichia coli and 64 µg/mL in the series with Staphylococcus aureus [7]. The MIC80 against Candida albicans is more than 512 µg/mL; against Cyberlindnera jadinii it was 32 µg/mL; with Candida it was more than 512 µg/mL; against Saccharomyces cerevisiae, 16 µg/mL.
Turning to `Fc1ccc(CN(CCBr)CCSc2nc3ccccc3[nH]2)c(F)c1`, the MIC against Proteus vulgaris [4], against Bacillus spizizenii, with Staphylococcus aureus [5], with Shigella dysenteriae [6], in the series on Micrococcus luteus and against Pseudomonas aeruginosa was more than 512 µg/mL in each case. Further, the minimal inhibitory concentration (MIC) in the series on Escherichia coli and against Staphylococcus aureus [7] was more than 512 µg/mL each time. In addition, the MIC80 was more than 512 µg/mL against Candida albicans, 512 µg/mL (≈ 1200 µM) with Cyberlindnera jadinii, more than 512 µg/mL against Candida and 512 µg/mL (≈ 1200 µM) in the series with Saccharomyces cerevisiae.
As for `COc1ccc2cc3[n+](cc2c1OCCN(CCSc1nc2ccccc2[nH]1)Cc1ccc(F)cc1F)CCc1cc2c(cc1-3)OCO2.[Cl-]`, the MIC in the series on Proteus vulgaris [4] was 64 µg/mL; in the series on Bacillus spizizenii it was 64 µg/mL; against Staphylococcus aureus [5], 32 µg/mL; against Shigella dysenteriae [6] it was 128 µg/mL; in the series with Micrococcus luteus, 128 µg/mL; with Pseudomonas aeruginosa, 64 µg/mL. Further, the MIC came to 32 µg/mL with Escherichia coli and 64 µg/mL with Staphylococcus aureus [7]. The MIC80 with Candida albicans was 64 µg/mL; against Cyberlindnera jadinii, 64 µg/mL; with Candida, 128 µg/mL; in the series on Saccharomyces cerevisiae it was 64 µg/mL.
